Test results taken from patent publication US20080207624A1, “Therapeutic Agent for Bh4-Responsive Hyperphenylalaninemia” (priority 2004, published 2008).
Structures can show the parent of a compound that is named as a salt.

Key:
[1] = Example 7: stability of sapropterin hydrochloride blended 200:1 with coloring agents; format: physicochemical
Experimental: Sapropterin hydrochloride was mixed at a 200:1 ratio with different coloring agents. 0.2 g of each mixture was placed in a glass vial, which was then sealed with a metal cap and was stored at 40° C. and 75% RH for 4 weeks. Subsequently, the mixtures were evaluated for stability (i.e., change in appearance, amount of remaining active ingredient).

[2] = Example 2: stability of sapropterin hydrochloride mixed 1:5 with sweeteners, uncapped vial 40° C., 75% RH; format: physicochemical; conditions: 8 weeks
Experimental: Sapropterin hydrochloride was mixed at a 1:5 ratio with each of the three sweeteners described above. 2 g of the mixture was placed in a glass vial and the vial was left uncapped at 40° C., 75% RH, to evaluate the stability of the preparation and sapropterin hydrochloride. […] The preparations using sucrose and fructose even underwent deliquescence. The remaining sapropterin hydrochloride was quantified by liquid chromatography that can differentiate sapropterin hydrochloride from its analogues. The area of the peak for sapropterin hydrochloride was determined and was used to calculate the remaining sapropterin hydrochloride (The same procedure was followed in other examples).

% amount remained ([1]; After 4-week storage (40° C./75% RH), sealed vial): 99.6%
Initial appearance ([1]; before storage): White
% amount of remaining sapropterin hydrochloride after storage [2]: 98.7%
Appearance after storage [2]: Yellowish white
SMILES: C[C@H](O)[C@H](O)[C@H]1CNc2nc(N)[nH]c(=O)c2N1 [None, sapropterin hydrochloride]
